In patent US8741906B2 (priority 2011, dated 2014):
Like-named read-outs stand apart in the source and are kept apart here.

Experiments:
human CB2 receptors = target: T1, human CB2 receptors (Homo sapiens, UniProt P34972); assay: functional cAMP assay, human CB2; assay type: cell-based; conditions: CHO cells expressing human CB2, cAMP; read-out: human CB2 EC50
T1 construct: expressed in transfected cells; host or cells: CHO cells
Outline: (§1)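 Compound exposure lasted 30 min at 30 °C in IBMX (1 mM)-containing Krebs Ringer bicarbonate buffer, applied to human CB1- or CB2-expressing CHO cells. Lysates were read by time-resolved FRET cAMP detection, converted via cAMP standard curve (10 μM–0.13 nM), and EC50 values calculated.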

human CB1 receptors = target: T2, human CB1 receptors (Homo sapiens, UniProt P21554); assay: functional cAMP assay, human CB1; assay type: cell-based
T2 construct: expressed in transfected cells; host or cells: CHO cells
T2 sequence (P21554 whole entry): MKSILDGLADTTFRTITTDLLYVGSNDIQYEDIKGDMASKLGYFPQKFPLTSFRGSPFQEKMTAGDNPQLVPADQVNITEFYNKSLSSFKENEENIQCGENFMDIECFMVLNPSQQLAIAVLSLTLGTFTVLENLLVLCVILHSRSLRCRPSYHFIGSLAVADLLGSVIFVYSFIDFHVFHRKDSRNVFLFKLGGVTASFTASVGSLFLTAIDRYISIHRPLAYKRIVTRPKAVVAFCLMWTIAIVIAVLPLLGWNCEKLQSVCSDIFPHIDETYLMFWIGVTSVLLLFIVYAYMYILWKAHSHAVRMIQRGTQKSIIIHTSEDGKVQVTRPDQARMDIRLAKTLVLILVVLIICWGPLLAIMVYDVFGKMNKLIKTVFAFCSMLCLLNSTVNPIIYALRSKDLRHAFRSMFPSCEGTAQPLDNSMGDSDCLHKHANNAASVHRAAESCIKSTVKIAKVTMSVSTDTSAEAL
Outline: as §1

[1] = CHO cells expressing human CB1, cAMP, read-out: human CB1 EC50

T1 sequence (P34972 whole entry): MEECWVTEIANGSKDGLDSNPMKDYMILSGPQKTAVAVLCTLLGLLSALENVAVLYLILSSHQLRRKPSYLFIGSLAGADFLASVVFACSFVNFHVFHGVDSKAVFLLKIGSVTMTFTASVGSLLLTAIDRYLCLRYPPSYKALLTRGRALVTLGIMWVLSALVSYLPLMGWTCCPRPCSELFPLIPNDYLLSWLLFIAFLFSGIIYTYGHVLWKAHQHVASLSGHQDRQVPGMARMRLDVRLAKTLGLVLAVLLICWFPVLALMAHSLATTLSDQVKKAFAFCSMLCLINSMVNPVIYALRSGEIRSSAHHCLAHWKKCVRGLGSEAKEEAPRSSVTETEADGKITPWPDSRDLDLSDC

Structure (SMILES)	EC50 (human CB2 receptors)	EC50 (human CB1 receptors; [1])	EC50 (human CB1 receptors)
CC(C)(C)c1nc(N2CCC(F)(F)C2)c2nnn(C3CCS(=O)(=O)C3)c2n1 (stereo not shown) [Example 126, 5-tert-Butyl-7-(3,3-difluoro-pyrrolidin-1-yl)-3-(1,1-dioxo-tetrahydro-1λ^6-thiophen-3-yl)-3H-[1,2,3]triazolo[4,5-d]pyrimidine]	0.0003 µM	0.496 µM	–
COC[C@H]1CCCN1c1nc(C(C)(C)C)nc2c1nnn2Cc1ccccc1Cl [Example 44, 5-tert-Butyl-3-(2-chloro-benzyl)-7-((R)-2-methoxymethyl-pyrrolidin-1-yl)-3H-[1,2,3]triazolo[4,5-d]pyrimidine]	0.001 µM	> 10 µM	–
COc1ccc(Cn2nnc3c(N4CCC(F)(F)C4)nc(C(C)(C)C)nc32)cc1 [Example 60, 5-tert-Butyl-7-(3,3-difluoro-pyrrolidin-1-yl)-3-(4-methoxy-benzyl)-3H-[1,2,3]triazolo[4,5-d]pyrimidine]	0.0025 µM	> 10 µM	–
CC(C)(C)c1nc(N2CC[C@H](O)[C@@H]2CO)c2nnn(Cc3ccccc3Cl)c2n1 [Example 51, (2S,3S)-1-[5-tert-Butyl-3-(2-chloro-benzyl)-3H-[1,2,3]triazolo[4,5-d]pyrimidin-7-yl]-2-hydroxymethyl-pyrrolidin-3-ol]	0.0024 µM	> 10 µM	–
Cc1nc(Cn2nnc3c(N4CC[C@H](O)C4)nc(C(C)(C)C)nc32)n(C)n1 [Example 161, (S)-1-[5-tert-Butyl-3-(2,5-dimethyl-2H-[1,2,4]triazol-3-ylmethyl)-3H-[1,2,3]triazolo[4,5-d]pyrimidin-7-yl]-pyrrolidin-3-ol]	0.0825 µM	> 10 µM	–
CCn1nnc2c(N3CCC(F)(F)C3)nc(C(C)(C)C)nc21 [Example 61, 5-tert-butyl-7-(3,3-difluoropyrrolidin-1-yl)-3-ethyl-3H-[1,2,3]triazolo[4,5-d]pyrimidine]	0.0132 µM	> 10 µM	–
Cc1noc(Cn2nnc3c(N4CCC(F)(F)C4)nc(C(C)(C)C)nc32)n1 [Example 102, 5-tert-Butyl-7-(3,3-difluoro-pyrrolidin-1-yl)-3-(3-methyl-[1,2,4]oxadiazol-5-ylmethyl)-3H-[1,2,3]triazolo[4,5-d]pyrimidine]	0.0006 µM	> 10 µM	–
Cn1ncnc1Cn1nnc2c(N3CC[C@H](O)[C@@H]3CO)nc(C(C)(C)C)nc21 [Example 169, (2S,3S)-1-[5-tert-Butyl-3-(2-methyl-2H-[1,2,4]triazol-3-ylmethyl)-3H-[1,2,3]triazolo[4,5-d]pyrimidin-7-yl]-2-hydroxymethyl-pyrrolidin-3-ol]	0.199 µM	–	> 10 µM
CC(C)(C)c1nc(N2CCC(F)(F)C2)c2nnn(CC(=O)c3ccncc3)c2n1 [Example 118, 2-[5-tert-Butyl-7-(3,3-difluoro-pyrrolidin-1-yl)-[1,2,3]triazolo[4,5-d]pyrimidin-3-yl]-1-pyridin-4-yl-ethanone]	0.0009 µM	> 10 µM	–
CCOc1nc(C(C)(C)C)nc2c1nnn2Cc1ccccc1Cl [Example 208, 5-tert-Butyl-3-(2-chloro-benzyl)-7-ethoxy-3H-[1,2,3]triazolo[4,5-d]pyrimidine]	0.0092 µM	> 10 µM	–
CC(C)(C)c1nc(N2CC[C@@](C)(O)C2)c2nnn(Cc3ccccc3C(F)(F)F)c2n1 [Example 222-b, (R)-1-(5-tert-butyl-3-(2-(trifluoromethyl)benzyl)-3H-[1,2,3]triazolo[4,5-d]pyrimidin-7-yl)-3-methylpyrrolidin-3-ol]	0.0052 µM	> 10 µM	–
CC(C)(C)c1nc(N2CC[C@@](C)(O)C2)c2nnn(Cc3nnnn3C3CC3)c2n1 [Example 230-b, (R)-1-(5-tert-butyl-3-((1-cyclopropyl-1H-tetrazol-5-yl)methyl)-3H-[1,2,3]triazolo[4,5-d]pyrimidin-7-yl)-3-methylpyrrolidin-3-ol]	0.0136 µM	> 10 µM	–
CC(C)(C)c1nc(N2CCC(F)(F)C2)c2nnn(Cc3ccccc3OC(F)(F)F)c2n1 [Example 82, 5-tert-Butyl-7-(3,3-difluoro-pyrrolidin-1-yl)-3-(2-trifluoromethoxy-benzyl)-3H-[1,2,3]triazolo[4,5-d]pyrimidine]	0.0002 µM	0.252 µM	–
CC(C)(C)c1nc(N2CCC(O)C2)c2nnn(Cc3ccccc3Cl)c2n1 (stereo not shown) [Example 204, 1-[5-tert-Butyl-3-(2-chloro-benzyl)-3H-[1,2,3]triazolo[4,5-d]pyrimidin-7-yl]-pyrrolidin-3-ol]	0.0005 µM	> 10 µM	–
CC(C)(C)c1nc(N2CCC(F)(F)C2)c2nnn(Cc3cc(Cl)cnc3Cl)c2n1 [Example 99, 5-tert-Butyl-3-(2,5-dichloro-pyridin-3-ylmethyl)-7-(3,3-difluoro-pyrrolidin-1-yl)-3H-[1,2,3]triazolo[4,5-d]pyrimidine]	0.0002 µM	0.497 µM	–
CC(C)(C)c1nc(N2CCC2)c2nnn(Cc3ccccc3Cl)c2n1 [Example 11, 7-Azetidin-1-yl-5-tert-butyl-3-(2-chloro-benzyl)-3H-[1,2,3]triazolo[4,5-d]pyrimidine]	0.0032 µM	1.09 µM	–
CC(C)(C)c1nc(N2CCC(F)(F)C2)c2nnn(CCc3ccccc3Cl)c2n1 [Example 103, 5-tert-Butyl-3-[2-(2-chloro-phenyl)-ethyl]-7-(3,3-difluoro-pyrrolidin-1-yl)-3H-[1,2,3]triazolo[4,5-d]pyrimidine]	0.0004 µM	0.415 µM	–
CC(C)(C)c1nc(N2CCC(F)(F)C2)c2nnn(Cc3c(Cl)ccc(F)c3Cl)c2n1 [Example 96, 5-tert-Butyl-3-(2,6-dichloro-3-fluoro-benzyl)-7-(3,3-difluoro-pyrrolidin-1-yl)-3H-[1,2,3]triazolo[4,5-c]pyrimidine]	0.0001 µM	0.167 µM	–
CC(C)(C)c1nc(N2CC[C@H](O)C2)c2nnn(Cc3nc(Cl)ccc3Cl)c2n1 [Example 139, (S)-1-[5-tert-Butyl-3-(3,6-dichloro-pyridin-2-ylmethyl)-3H-[1,2,3]triazolo[4,5-d]pyrimidin-7-yl]-pyrrolidin-3-ol]	0.0003 µM	> 10 µM	–
CC(C)(C)c1nc(N2CCC(F)(F)C2)c2nnn(CCc3ccncc3)c2n1 [Example 122, 5-tert-Butyl-7-(3,3-difluoro-pyrrolidin-1-yl)-3-(2-pyridin-4-yl-ethyl)-3H-[1,2,3]triazolo[4,5-d]pyrimidine]	0.0013 µM	> 10 µM	–
CN(C)c1c(Cl)cncc1Cn1nnc2c(N3CCC(F)(F)C3)nc(C(C)(C)C)nc21 [Example 134, {3-[5-tert-Butyl-7-(3,3-difluoro-pyrrolidin-1-yl)-[1,2,3]triazolo[4,5-d]pyrimidin-3-ylmethyl]-5-chloro-pyridin-4-yl}-dimethyl-amine]	0.0003 µM	0.234 µM	–
CC(C)(C)c1nc(N2CCCCO2)c2nnn(Cc3ccccc3Cl)c2n1 [Example 39, 5-tert-Butyl-3-(2-chloro-benzyl)-7-[1,2]oxazinan-2-yl-3H-[1,2,3]triazolo[4,5-d]pyrimidine]	0.0079 µM	1.33 µM	–
CC(C)(C)c1nc(N2CCC(F)(F)C2)c2nnn(CC(=O)c3cccc(Cl)c3)c2n1 [Example 115, 2-[5-tert-Butyl-7-(3,3-difluoro-pyrrolidin-1-yl)-[1,2,3]triazolo[4,5-d]pyrimidin-3-yl]-1-(3-chloro-phenyl)-ethanone]	0.0004 µM	> 10 µM	–
